Entries after “also recorded” stand apart in the source; their conditions may differ.

For one data set, the system named is BDNF. As to the kind of experiment: Western blot of synaptoneurosomes, BDNF levels. Type of data set: in vivo, mice. The settings on record: for mBDNF levels: hippocampus, 24 hours post-administration, 10 mg/kg; for proBDNF / mBDNF levels: prefrontal cortex. As for the experimental part:
(§1) To purify synaptoneurosomes, mouse prefrontal cortex or hippocampus were dissected and homogenized in Syn-PER Reagent (ThermoFisher Scientific, Waltham, Mass., USA; Cat #87793) with 1× protease and phosphatase inhibitor cocktail (ThermoFisher Scientific, Waltham, Mass., USA; Cat #78440). The homogenate was centrifuged for 10 min at 1,200×g at 4° C. The supernatant was centrifuged at 15,000×g for 20 min. After centrifugation, the supernatant the pellet (synaptosomal fraction) was re-suspended and sonicated in N-PER Neuronal Protein Extraction Reagent (ThermoFisher Scientific, Waltham, Mass., USA; Cat #87792). For total homogenous tissue lysates, mouse prefrontal cortex or hippocampus were homogenized and sonicated in N-PER Neuronal Protein Extraction Reagent with 1× protease & phosphatase inhibitor cocktail) Protein concentration was determined via the BCA protein assay kit (ThermoFisher Scientific, Waltham, Mass., USA; Cat #23227).
(§2) For western blotting, equal amount of proteins (10-40 μg as optimal for each antibody) for each sample were loaded into NuPage 4-12% Bis-Tris gel for electrophoresis. Nitrocellulose membranes with transferred proteins were blocked with 5% milk in TBST (TBS+0.1% Tween-20) for 1 hour and kept with primary antibodies overnight at 4° C. The following primary antibodies were used: phospho-eEF2 (Cell Signaling Technology, Danvers, Mass., USA; Cat #2331), total eEF2 (Cell Signaling Technology, Danvers, Mass., USA; Cat #2332), phospho-mTOR (Cell Signaling Technology, Danvers, Mass., USA; Cat #2971), total mTOR (Cell Signaling Technology, Danvers, Mass., USA; Cat #2983), GluR1 (Cell Signaling Technology, Danvers, Mass., USA; […]), GluR2 (Cell Signaling Technology, Danvers, Mass., USA; Cat #13607), BDNF (Santa Cruz Biotechnology, Dallas, Tex., USA; Cat # sc-546), and GAPDH (Abcam, Cambridge, Mass., USA; Cat # ab8245). The next day, blots were washed three times in PBST and incubated with horseradish peroxidase conjugated anti-mouse or anti-rabbit secondary antibody (1:5000 to 1:10000) for 1 hour. After final three washes with TBST, bands were detected using enhanced chemiluminescence (ECL) with the Syngene Imaging System (G:Box ChemiXX9). After imaging, the blots then were incubated in the stripping buffer (ThermoFisher Scientific, Waltham, Mass., USA; Cat #46430) for 10-15 min at room temperature followed by three time washes with TBST. The stripped blots were washed in blocking solution for 1 hour and incubated with the primary antibody directed against total levels of the respective protein or GAPDH for loading control. Densitometric analysis of phospho- and total immunoreactive bands for each protein was conducted using Syngene's GenTools software Immunoreactivity was normalized to the saline treated control group for each protein.

Data set [1] concerns mice. As to the kind of experiment: Drug discrimination in ketamine-trained mice. The class given is in vivo. The settings on record: for response rate of overall lever pressing per sec: drug discrimination paradigm. As for the experimental part:
Mice were food restricted until they reached 85% of their initial body weight and were maintained at 85% throughout the duration of the experiment Animals were trained to lever press for food (20 mg sucrose pellets; TestDiet, St. Luis, Mo., USA) in standard two lever-operant conditioning chambers (Coulbourn Instruments, Whitehall, Pa., USA), under a fixed-ratio 5 of reinforcement (FR5) in daily 30-min sessions. When stable responding was succeeded over 3 consecutive sessions (average of 40 training sessions), mice were trained to discriminate ketamine (10 mg/kg) from saline (7.5 ml/kg) under a double alternation schedule (e.g., ketamine, ketamine, saline, saline). The subjects received either ketamine (10 mg/kg; i.p.) or saline (7.5 ml/kg) 15 minutes prior to the start of the 30-minute session. […] Drug discrimination test sessions were conducted when mice reached the following criteria: (1) first FR5 completed on the correct lever, and (2)≥85% correct lever responding over the entire session. During the test sessions mice were administered with saline (7.5 ml/kg), ketamine (10 mg/kg), phencyclidine (PCP; 3 mg/kg) or (2R,6R)-HNK (10 and 50 mg/kg). […] Recording of responses and pellet delivery were controlled and calculated by an automated computer system (Graphic State v3.1; Coulbourn Instruments, Whitehall, Pa., USA).

For data set [2], the system named is mice. Kind of data set: Open field test (locomotor activity). The class given is in vivo. The settings on record: 1 hour after i.p. drug. As for the experimental part:
Mice were placed into individual open-field arenas (50 cm length×50 cm width×38 cm height; San Diego Instruments, San Diego, Calif., USA) for a 60-min habituation period. Mice were then injected with the respective drug and assessed for locomotor activity for another 60 min. Distance travelled was analyzed using TopScan v2.0 (CleverSys, Inc, Reston, Va., USA).

In the next data set the test system is GluR1 and GluR2. Kind of data set: Western blot of synaptoneurosomes, GluR1 and GluR2 levels. Type of data set: in vivo, mice. As for the experimental part:
as §1, §2

Take `CNC1(c2ccccc2Cl)CCCCC1=O` (racemic) [ketamine, (R,S)-ketamine, reference compound]: the mBDNF levels result in the data set with BDNF is on record as “increased hippocampal BDNF”; with BDNF (listed as (R,S)-ketamine), “increased mBDNF levels”. Besides, the “proBDNF / mBDNF levels” value in the data set with BDNF is “did not alter”. Further, the “response rate of overall lever pressing per sec” value in the data set on mice [1] was “not changed”. In addition, the “locomotor activity in the open-field test” value in the data set with mice [2] was “not associated with sex differences in ketamine-induced hyperlocomotion”; with mice [2] (listed as (R,S)-KET), “induced hyper-locomotor responses equally in both male and female mice”; in the data set on mice [2] (listed as (R,S)-ketamine), “equally potent in inducing a hyper-locomotor response”. Also, the “GluR1 and GluR2 levels in hippocampal synaptoneurosomes” value with GluR1 and GluR2 (1 hour post-treatment) was “neither ketamine nor (2R,6R)-HNK administration altered”; in the data set with GluR1 and GluR2 (24 hours post-treatment), “both increased GluR1 and GluR2 levels”. Further, the “GluR1/GluR2 levels in prefrontal cortex synaptoneurosomes” value in the data set on GluR1 and GluR2 (listed as (R,S)-KET) is listed as “did not alter synaptoneurosome levels of GluR1/GluR2”.

For `N[C@@]1(c2ccccc2Cl)CCC[C@@H](O)C1=O` [(2R,6R)-HNK, (2R,6R)-2-amino-2-(2-chlorophenyl)-6-hydroxycyclohexanone], the mBDNF levels entry with BDNF (listed as (2R,6R)-hydroxynorketamine) is reported as “increased mBDNF levels”. In the data set on BDNF, the “proBDNF / mBDNF levels” value is recorded as “did not alter”. In addition, in the data set on mice [1], the “response rate of overall lever pressing per sec” value is listed as “not changed”. Also, in the data set on mice [1] (mice trained to discriminate ketamine (10 mg/kg) from saline), the ketamine-associated discriminative stimulus entry is “did not induce; also recorded: did not produce ketamine-related discrimination responses; also recorded: did not produce discriminative stimulus behaviors”. In the data set on mice [2], the “locomotor activity in the open-field test” value is reported as “did not induce any significant change in locomotion; also recorded: did not induce any stimulant-like hyperlocomotion”. Further, the “GluR1 and GluR2 levels in hippocampal synaptoneurosomes” value in the data set on GluR1 and GluR2 (1 hour post-treatment) was “neither ketamine nor (2R,6R)-HNK administration altered”; in the data set with GluR1 and GluR2 (24 hours post-treatment), “both increased GluR1 and GluR2 levels”. The “GluR1/GluR2 levels in prefrontal cortex synaptoneurosomes” value in the data set on GluR1 and GluR2 is given as “did not alter synaptoneurosome levels of GluR1/GluR2”.

Values taken from US20190083420A1, “METHODS OF USING (2R, 6R)-HYDROXYN[…] (2S, 6S)-HYDROXYN[…] THE TREATMENT OF DEPRESSION, ANXIETY, ANHEDONIA, FATIGUE, SUICIDAL IDEATION, AND POST TRAUMATIC STRESS DISORDERS” (The Uinited States of America, as represented by the …, priority 2016, published 2019).
